The subject of one assay is S. aureus. In words: MIC, broth microdilution, S. aureus strains. The format is cell-based. As to conditions: Staphylococcus aureus. As for the experimental part: (§1) Antibacterial minimum inhibitory concentrations (MICs) were determined from two independent experiments using broth microdilution methods according to Clinical and Laboratory Standards Institute guidelines. […] Bacterial strains used were from GSK's culture collection.
(§2) The quinolone resistance-determining region (QRDR) or full-length of gyrA/B and parC/E were amplified by PCR from the resistant mutants and DNA sequenced using the following primer pairs (all 5′–3′ sequence): for S. aureus gyrA: […] and […]; gyrB […] and […]; parC […] and […], and parE […] and […], respectively. For S. pneumoniae gyrA: […] and […]; gyrB: […] and […]; parC: […] and […], and parE: […] and […], respectively. […] Mutations in etoposide-resistant transformants were confirmed by PCR and DNA analysis.

Assay [1] concerns the target T1, S. aureus DNA gyrase (Staphylococcus aureus, UniProt P0A0K8+P20831).
T1 construct: Full-length S. aureus GyrA and GyrB were expressed in E. coli and purified as described; made in house; host or cells: E. coli
In words: biochemical. It counts as biochemical. The conditions noted are these: for Type of DNA breaks stabilized with S. aureus DNA gyrase: each compound 100 μM, supercoiled pBR322, full-length S. aureus gyrase. On the procedure:
BlueJuice gel loading buffer (Invitrogen) was added. […] See Supplementary Fig. 15 for representative gels.

The test system of another assay is S. pneumoniae. As to the kind of experiment: MIC, broth microdilution, S. pneumoniae strains. It counts as cell-based. As to conditions: Streptococcus pneumoniae. On the procedure: as §1, §2
Another assay has as its system E. coli. In words: MIC, broth microdilution, E. coli strains. It counts as cell-based, Escherichia coli. The conditions noted are these: Escherichia coli. On the procedure: as §1
For assay [2], the target named is T2, S. aureus Topo IV (Staphylococcus aureus, UniProt P0C1S7+P0C1U9).
T2 construct: purchased Inspiralis
Also on record: method as in earlier work. As to conditions: read-out: IC50, S. aureus Topo IV decatanation; supplementary ref 4; cited from earlier work.

A further assay concerns the target T3, E. coli Topo IV (Escherichia coli, UniProt P0AFI2+P20083).
T3 construct: purchased Inspiralis
As to the kind of experiment: E. coli topo IV decatenation inhibition assay. The format is biochemical. On the procedure: (§3) In vitro topoisomerase activity assays were performed as described with minor modifications. […] For E. coli DNA gyrase supercoiling assays, 3.4 nM of wild-type E. coli DNA gyrase (Inspiralis) was incubated with 500 ng relaxed pBR322 plasmid DNA in a 30-μl reaction containing the same buffer mixture but without the potassium glutamate. For S. aureus topo IV decatenation assays, 4 nM of S. aureus topo IV was incubated with 200 ng kinetoplast DNA in buffer as described by the manufacturer (Inspiralis). In E. coli topo IV decatenation assay, 0.125 nM of E. coli topo IV was incubated with kDNA as described in the protocol (Inspiralis). Human Top2α relaxation assays were performed as reported using 2 nM of enzyme. […] Reactions were analysed by electrophoresis in 1% w/v agarose gels followed by ethidium bromide staining. IC50 values, defined as the amount of compound that causes half-maximal inhibition, were determined by quantifying the DNA products using densitometry (VisionWorks, UVP) and fitting the data by nonlinear regression with GraFit software (Erythacus). Compound IC50 values reported are the averages of two to three determinations.

Assay [3] deals with T1, S. aureus DNA gyrase. As to the kind of experiment: S. aureus DNA gyrase supercoiling inhibition assay. It counts as biochemical. On the procedure:
as §3

The target in assay [4] is T2, S. aureus Topo IV. In words: S. aureus topo IV decatenation inhibition assay. It counts as biochemical. As for the experimental part: as §3
A further assay addresses E. coli DNA gyrase (Escherichia coli, UniProt P0AES4+P0AES6). In words: E. coli DNA gyrase supercoiling inhibition assay. The format is biochemical. Also on record: E. coli full-length DNA gyrase subunits A and B (both N-terminally 6-His-tagged) produced in-house; 6-His (N); made in house. As for the experimental part:
as §3

The mark [5] stands for this setting: S. aureus RN4220 (parent), read-out: MIC.
Where [6] appears, read: S. aureus RN4220 GyrB ΔT403-K406, read-out: MIC.
The mark [7] stands for this setting: S. pneumoniae 1629, read-out: MIC.
Where [8] appears, read: S. pneumoniae 1629 GyrB ΔL407–S410, read-out: MIC.

pEC50, pIC50: −log10 of the molar value. ≈ marks a conversion by molar mass, not a printed value. Read-outs that look alike come from different tables or passages of the source.

`O=C1c2c(O)ccc(O)c2C(=O)c2c(NCCNCCO)ccc(NCCNCCO)c21` [Mitoxantrone, mitoxantrone]: the MIC in the assay with S. aureus (setting [5]) was determined as 32 µg/mL (≈ 72 µM); with S. aureus (S. aureus RN4220 GyrB D437A), 8 µg/mL (≈ 18 µM); with S. aureus (S. aureus RN4220 GyrB D437N), 32 µg/mL (≈ 72 µM); against S. aureus (S. aureus RN4220 GyrB D437V) it was 8 µg/mL (≈ 18 µM); in the assay on S. aureus (S. aureus RN4220 GyrB P456L) it was 4 µg/mL (≈ 9 µM); in the assay with S. aureus (setting [6]) it was 6 µg/mL (≈ 13.5 µM).

Consider `COc1c(N2C[C@@H]3CCCN[C@@H]3C2)c(F)cc2c(=O)c(C(=O)O)cn(C3CC3)c12` [Moxifloxacin, moxifloxacin], for which, at S. aureus DNA gyrase [1], the “Type of DNA breaks stabilized with S. aureus DNA gyrase” value is “DSB”. In addition, the MIC in the assay on S. aureus (setting [5]) stood at 0.063 µg/mL (≈ 0.157 µM); with S. aureus (S. aureus RN4220 GyrB D437A) it was 0.063 µg/mL (≈ 0.157 µM); with S. aureus (S. aureus RN4220 GyrB D437N), 0.063 µg/mL (≈ 0.157 µM); in the assay on S. pneumoniae (setting [7]) it was 0.031 µg/mL (≈ 0.0772 µM); against S. pneumoniae (S. pneumoniae 1629 GyrB R447C), 0.094 µg/mL (≈ 0.234 µM); with S. pneumoniae (setting [8]), 0.047 µg/mL (≈ 0.117 µM). The MIC with E. coli (E. coli 7623, read-out: MIC) is no more than 0.016 µg/mL; in the assay on E. coli (E. coli 7623 ΔtolC) it was no more than 0.016 µg/mL. The pIC50 at S. aureus Topo IV [2] was 5.42.

As to `COc1cc([C@@H]2c3cc4c(cc3[C@@H](O[C@@H]3O[C@@H]5CO[C@@H](C)O[C@H]5[C@H](O)[C@H]3O)[C@H]3COC(=O)[C@H]23)OCO4)cc(OC)c1O` [Etoposide, etoposide], on S. aureus DNA gyrase [1], the pEC50 is 3.97. In addition, the “Type of DNA breaks stabilized with S. aureus DNA gyrase” value on S. aureus DNA gyrase [1] was “both SSB and DSB”. In addition, the “Plateau of fitted IC50 curve, % of maximal inhibition” value is given as roughly 75% on E. coli Topo IV (E. coli Topo IV decatenation), roughly 75% at S. aureus DNA gyrase [3] (S. aureus DNA gyrase supercoiling), roughly 50% at S. aureus Topo IV [4] and “approx. 60%” at E. coli DNA gyrase (E. coli DNA gyrase supercoiling). The pIC50 at E. coli Topo IV (read-out: IC50, E. coli Topo IV decatanation) is 3.97; against S. aureus DNA gyrase [3], 4.32; on S. aureus Topo IV [4], 3.61; on E. coli DNA gyrase, 3.87. Further, the MIC in the assay with S. aureus (setting [5]) turned out to be 64 µg/mL (≈ 109 µM); in the assay with S. aureus (S. aureus RN4220 GyrB D437A), 256 µg/mL (≈ 435 µM); against S. aureus (S. aureus RN4220 GyrB D437N), 128 µg/mL (≈ 217 µM); in the assay with S. aureus (S. aureus RN4220 GyrB D437V), 256 µg/mL (≈ 435 µM); against S. aureus (S. aureus RN4220 GyrB P456L), 256 µg/mL (≈ 435 µM); in the assay on S. aureus (setting [6]), 256 µg/mL (≈ 435 µM). Further, the MIC in the assay with S. pneumoniae (setting [7]) was 2 µg/mL (≈ 3.4 µM); in the assay with S. pneumoniae (S. pneumoniae 1629 GyrB R447C), 16 µg/mL (≈ 27.2 µM); with S. pneumoniae (setting [8]), 16 µg/mL (≈ 27.2 µM); in the assay on E. coli (E. coli 7623, read-out: MIC), greater than 256 µg/mL; in the assay with E. coli (E. coli 7623 ΔtolC), 0.75 µg/mL (≈ 1.27 µM).

As to `COc1ccc2ncc(C#N)c(CCN3CCC(NCc4cc5c(cn4)OCS5)CC3)c2c1` [GSK299423], the MIC with S. aureus (setting [5]) was 0.016 µg/mL (≈ 0.0347 µM); against S. aureus (S. aureus RN4220 GyrB D437A), 0.125 µg/mL (≈ 0.271 µM); against S. aureus (S. aureus RN4220 GyrB D437N) it was 0.125 µg/mL (≈ 0.271 µM); with S. aureus (S. aureus RN4220 GyrB D437V) it was 0.125 µg/mL (≈ 0.271 µM); with S. aureus (S. aureus RN4220 GyrB P456L), 0.125 µg/mL (≈ 0.271 µM); in the assay with S. aureus (setting [6]) it was 0.016 µg/mL (≈ 0.0347 µM).

With `COc1cc(NS(C)(=O)=O)ccc1Nc1c2ccccc2nc2ccccc12` [Amsacrine, amsacrine], the MIC is greater than 128 µg/mL in the assay with S. aureus (setting [5]); 32 µg/mL (≈ 81.3 µM) in the assay with S. aureus (S. aureus RN4220 GyrB D437A); greater than 128 µg/mL in the assay with S. aureus (S. aureus RN4220 GyrB D437N); 64 µg/mL (≈ 163 µM) against S. aureus (S. aureus RN4220 GyrB D437V); 32 µg/mL (≈ 81.3 µM) in the assay with S. aureus (S. aureus RN4220 GyrB P456L); 128 µg/mL (≈ 325 µM) in the assay on S. aureus (setting [6]).

These data come from publication PMC4686662 (Nature Communications, 2015).
